Assay results as given in US4393178A, “Fast crystallizing polyester compositions” (priority 1979, dated 1983).
Structures can show the parent of a compound that is named as a salt. Where two headings read alike, the source gives them in different places. Each block holds one molecule with its values, some of them ahead of it.

Experiments:
[1] = Crystallisation peak temperature on heating (Tn), DSC; assay type: physicochemical; conditions: for Tn (16° C./min): 1% salt deposited from solution on PET; for Tn (16° C./min) / Tn(comp.)-Tn(PET) (16° C./min): pressed 280 °C 1 minute, heating rate 16 °C/minute; for Tn: 1% salt on PET I.V. 0.73 from solution; for nucleating activity: in words; for Tn(comp.)-Tn(PET) (16° C./min): 1% salt deposited from solution on PET chip; for Tn(composition)-Tn(polyester): PET I.V. 0.73 + 1% salt, 2-roll mill 300 °C 2 min, 10 °C/minute
Procedure: In one such DSC technique the crystallisation peak temperature difference, Tn(composition)--Tn(polyester) is determined by measuring the crystallisation peak temperatures on heating for the composition in comparison with the polyester of the composition not containing the ionisable salt. The detailed procedure is as follows. Compositions were prepared from the polyester and the additive by mixing on a 2-roll mill at 300° C. for 2 minutes. The sample was taken from the mill and pressed into a film in a compression moulding machine. 10 mg samples of the composition were placed in a capsule, rapidly heated to 290° C. and maintained at that temperature for 1 minute. The capsule was then dropped into water to quench the polymer and prevent crystallisation. The sample was then placed in a Perkin Elmer DSC 2 machine and heated at a rate of 10° C./minute until reaching a temperature of 290° C. The crystallisation peak temperature observed on this heating cycle is recorded and compared with the value for the polyester not containing the additive.
Samples of polyethylene terephthalate (I.V. =0.73) containing 1% of the salts listed in Table 2 were prepared by compounding at 300° C. on a 2-roll mill for 2 minutes. The samples were evaluated to determine Tn(composition-Tn(polyester), the total number of end groups, the number of carboxylate groups and the number of hydroxyl and carboxyl groups.
The salts listed in Table 3 were deposited from solution on the surface of polyethylene terephthalate chip to give a concentration of 1% by weight of salt. The product was dried under vcuum at 96° C. for 3 hours. The compositions were pressed into film using a temperature of 280° C. for 1 minute. The DSC measurements were made after quenching from the melt to prevent crystallisation and using a heating rate of 16° C./minute.
1% by weight of the sodium salt of saccharin was deposited on the surface of granules of a polyethylene terephthalate homopolymer of I.V. =0.73 by evaporating an aqueous solution of the salt from the granules by drying at 96° C. under vacuum for 3 hours. The granules obtained were compression moulded into film by pressing at 280° C. for 60 second. The film was used for measurements of Tn at a heating rate of 16° C./minute.
The effect of the salts listed in Table 4 was determined by taking granules of a polymer of poly(ethylene terephthalate) homopolymer having an intrinsic viscosity of 0.73 and evaporating a solution of the salt in methanol or water from the surface of the granules by drying at 96° C. under vacuum for 3 hours. The proportions of polymer and solution used were such as to give a concentration of 1% of salt by weight of the final dry composition. The granules obtained were compression-moulded into film at 280° C. for various periods of time. The film was used for measurement of Tn as hereinbefore described.
Two samples of polyethylene terephthalate chip (I.V. =0.73) were coated from solution with 1% of the sodium salt of o-hydroxybenzoic acid and the disodium salt of the same acid respectively. After drying for 3 hours in a vacuum oven at 95° C. films were prepared by pressing the products for 1 minute at 280° C.

End group determination = assay type: physicochemical
Procedure: The numbers of hydroxyl and carboxyl groups were also determined according to the procedure given in this paper.
[…] The samples were evaluated to determine Tn(composition-Tn(polyester), the total number of end groups, the number of carboxylate groups and the number of hydroxyl and carboxyl groups.

[2] = Solubility parameter δ of the acid
[3] = Half-crystallisation time (t1/2), isothermal DSC; assay type: physicochemical
Procedure: A DSC 2 Perkin Elmer scanning calorimeter was used.
10 mg of the sample of polymer material are placed in a capsule and introduced into the apparatus, wherein the sample is quickly heated to a temperature of 290° C. at which it is maintained during 1 minute.
The molten polymer material is then very quickly cooled by means of liquid air (at a rate of 320° C. per minute) until the crystallisation temperature is reached.
The crystallisation isotherm is registered on a temperature-time graph and the peak appearing on the registered isotherm is taken as the half-crystallisation time (t1/2).

[4] = Degradation constant K (melt degradation performance); assay type: physicochemical; parameters: unit not given here; conditions: 1% salt in PET, 2-roll mill 270 °C 5 min; molten state 290 °C
Procedure: The melt degradation performance is a measure of the extent of degradation under molten conditions. A convenient method of quantifying the performance is by measuring the "K value". A method for determining this value in the molten state using an Instron Capillary rheometer is given in a paper by J. Devaux et al in Makromol.
This method is carried out on samples prepared by reacting the salt with the polyester on a 2 roll-mill at a temperature above the melting point of the polyester for 5 minutes and then pressing the product obtained into a 2 mm thick sheet using the same temperature for 3 minutes before cooling to room temperature. The method is described for polyethylene terephthalate but can be readily adapted for other polyesters.
For polyethylene terephthalate the K value in the presence of salt should be less than 60.

[5] = ΔT = Tc(cooling) - Tn(heating), DSC; assay type: physicochemical; conditions: 1% salt in PET, 2-roll mill 270 °C 5 min; 10 °C/minute
Procedure: An alternative method for assessing the effectiveness of nucleation of an additive is to compare the difference between the value of the crystallisation peak on cooling (Tc) with that on heating (Tn) for a composition containing an ionisable salt. The value obtained from this comparison, Tc(cooling) -Tn(heating) is termed ΔT. […] Samples of polyester together with 1% of the salt under test were mixed in a 2-roll mill at 270° C. for 5 minutes. The sample produced was pressed into 2 mm thick sheets at 270° C. for 3 minutes and then cooled to room temperature. 10 mg of the sample was placed in a capsule and rapidly heated to 290° C. After maintaining this temperature for 1 minute the capsule was quenched in water. The crystallisation peak temperatures on heating (Tn) and cooling (Tc) were determined using heating and cooling rates of 10° C./minute on a Perkin Elmer DSC 2 machine.

[6] = 1% salt deposited from solution on PET chip, pressed 280 °C 1 minute
[7] = PET I.V. 0.73 + 1% salt, 2-roll mill 300 °C 2 min

Compound: O=C([O-])c1cccc2ccccc12.[Na+]
Tn (16° C./min) [1]: 111 °C

Compound: O=[PH](O)C1CCCCC1 [Calcium cyclohexyl phosphinate]
Tn (16° C./min) [1]: 129 °C

Compound: O=C([O-])c1ccc(C(=O)[O-])cc1.[Na+].[Na+] [Disodium terephthalate, reference compound]
Tn ([1]; time in press 30 sec at 280 °C): 141 °C
Tn ([1]; time in press 60 sec at 280 °C): 140 °C
nucleating activity [1]: only slight nucleating activity

Tn ([1]; time in press 30 sec at 280 °C): 142.5 °C
Tn ([1]; time in press 60 sec at 280 °C): 144.5 °C
Compound: O=C(O)c1ccccc1C(=O)O [Potassium hydrogen orthophthalate, reference compound]

Compound: COC(=O)c1ccc(C(=O)[O-])cc1.[K+] [Potassium monomethyl terephthalate, reference compound]
Tn ([1]; time in press 30 sec at 280 °C): 138.5 °C
Tn ([1]; time in press 60 sec at 280 °C): 137.5 °C
nucleating activity [1]: only slight nucleating activity

Compound: O=C([O-])c1cccc2c(O)cccc12.[Na+] [Sodium 5-hydroxy-1-naphthoate]
Tn (16° C./min) [1]: 132 °C

Compound: O=C([O-])c1ccc2cc(O)ccc2c1.[Na+] [Sodium 6-hydroxy-2-naphthoate]
Tn (16° C./min) [1]: 116 °C

Compound: COc1ccc2cc(C(=O)[O-])ccc2c1.[Na+] [Sodium 6-methoxy-2-naphthoate]
Tn (16° C./min) [1]: 119 °C

Compound: O=C([O-])c1cccc2cccc(Br)c12.[Na+] [Sodium 8-bromo-1-naphthoate]
Tn (16° C./min) [1]: 124 °C

Compound: COC(=O)c1ccc(C(=O)[O-])cc1.[Na+] [Sodium monomethyl terephthalate, reference compound]
Tn ([1]; time in press 60 sec at 280 °C): 132 °C
nucleating activity [1]: only slight nucleating activity

Compound: O=[PH](O)c1ccccc1 [Sodium phenyl phosphinate]
End Groups --COOH (End group determination; [6]): 25 moles × 10^-6 g^-1
End Groups --OH (End group determination; [6]): 66 moles × 10^-6 g^-1
Tn (16° C./min) [1]: 117 °C

End Groups --COOH (End group determination; [6]): 26 moles × 10^-6 g^-1
End Groups --OH (End group determination; [6]): 60 moles × 10^-6 g^-1
End Groups Total from solution I.V. (End group determination; [6]): 133 moles × 10^-6 g^-1
Tn(comp.)-Tn(PET) (16° C./min) [1]: 22 °C
Tn (16° C./min) [1]: 121 °C
Compound: O=C(O)c1ccccc1-c1ccccc1 [Sodium salt of 2-biphenylcarboxylic acid]

End Groups --COOH (End group determination; [6]): 31 moles × 10^-6 g^-1
End Groups --OH (End group determination; [6]): 60 moles × 10^-6 g^-1
End Groups Total from solution I.V. (End group determination; [6]): 121 moles × 10^-6 g^-1
Tn(comp.)-Tn(PET) (16° C./min) [1]: 25 °C
Tn (16° C./min) [1]: 120 °C
Compound: O=C(O)c1ccc2ccccc2c1 [Sodium salt of 2-naphthoic acid]

End Groups --COOH (End group determination; [6]): 31 moles × 10^-6 g^-1
End Groups --OH (End group determination; [6]): 61 moles × 10^-6 g^-1
End Groups Total from solution I.V. (End group determination; [6]): 107 moles × 10^-6 g^-1
Tn(comp.)-Tn(PET) (16° C./min) [1]: 16 °C
Tn (16° C./min) [1]: 131 °C
Compound: O=C(O)c1ccc(-c2ccccc2)cc1 [Sodium salt of 4-biphenylcarboxylic acid]

δ × pKH.sbsb.2O ([2]; product for the acid): 30
t1/2 (sec) 110° C. ([3]; 110 °C, 1% salt in PET, 2-roll mill 270 °C 5 min, after melting 1 minute at 290 °C): 65 s
t1/2 (sec) 120° C. ([3]; 120 °C, 1% salt in PET, 2-roll mill 270 °C 5 min, after melting 1 minute at 290 °C): 45 s
K [4]: 20
ΔT [5]: 106 °C
Compound: O=C(O)c1ccccc1[N+](=O)[O-] [ortho-nitrobenzoic acid]

Compound: O=C([O-])Cc1cccc2ccccc12.[Na+] [sodium 1-naphthylacetate]
t1/2 (sec) 110° C. [3]: 55 s
t1/2 (sec) 120° C. [3]: 30 s
K [4]: 30

Compound: O=C([O-])c1c(Cl)cccc1Cl.[Na+] [sodium 2,6-dichlorobenzoate]
% of carboxylate end group (End group determination; [7]): 9.8%
End Groups --COOH (End group determination; [7]): 51 moles × 10^-6 g^-1
End Groups --OH (End group determination; [7]): 56 moles × 10^-6 g^-1
End Groups Carboxylate (End group determination; [7]): 15 moles × 10^-6 g^-1
End Groups Total from solution I.V. (End group determination; [7]): 153 moles × 10^-6 g^-1
Tn(composition)-Tn(polyester) [1]: 25 °C

Compound: O=C([O-])c1c(O)cccc1O.[Na+] [sodium 2,6-dihydroxybenzoate]
% of carboxylate end group (End group determination; [7]): 3.9%
End Groups --COOH (End group determination; [7]): 55 moles × 10^-6 g^-1
End Groups --OH (End group determination; [7]): 69 moles × 10^-6 g^-1
End Groups Carboxylate (End group determination; [7]): 5 moles × 10^-6 g^-1
End Groups Total from solution I.V. (End group determination; [7]): 127 moles × 10^-6 g^-1
Tn(composition)-Tn(polyester) [1]: 24 °C

Compound: O=C([O-])c1cc(O)cc(O)c1.[Na+] [sodium 3,5-dihydroxybenzoate]
% of carboxylate end group (End group determination; [7]): 0%
End Groups Carboxylate (End group determination; [7]): 0 moles × 10^-6 g^-1
End Groups Total from solution I.V. (End group determination; [7]): 138 moles × 10^-6 g^-1
Tn(composition)-Tn(polyester) [1]: 7 °C

Compound: O=C(O)c1ccccc1 [sodium benzoate, reference compound]
δ × pKH.sbsb.2O [2]: 55
% of carboxylate end group (End group determination; [7]): 9.6%
End Groups --COOH (End group determination; [7]): 44 moles × 10^-6 g^-1
End Groups --OH (End group determination; [7]): 54 moles × 10^-6 g^-1
End Groups Carboxylate (End group determination; [7]): 13 moles × 10^-6 g^-1
End Groups Total from solution I.V. (End group determination; [7]): 136 moles × 10^-6 g^-1
Tn ([1]; time in press 30 sec at 280 °C): 115.5 °C
Tn ([1]; time in press 60 sec at 280 °C): 117 °C
Tn(composition)-Tn(polyester) [1]: 27 °C
t1/2 (sec) 110° C. [3]: 90 s
t1/2 (sec) 120° C. [3]: 45 s
K [4]: 88
ΔT [5]: 99 °C

Compound: O=C([O-])c1ccc(O)cc1.[Na+] [sodium p-hydroxybenzoate]
% of carboxylate end group (End group determination; [7]): 2.7%
End Groups --COOH (End group determination; [7]): 102 moles × 10^-6 g^-1
End Groups --OH (End group determination; [7]): 64 moles × 10^-6 g^-1
End Groups Carboxylate (End group determination; [7]): 4 moles × 10^-6 g^-1
End Groups Total from solution I.V. (End group determination; [7]): 148 moles × 10^-6 g^-1
Tn(composition)-Tn(polyester) [1]: 20 °C

Compound: CC(C)(C)c1ccc(C(=O)[O-])cc1.[Na+] [sodium para-tert-butylbenzoate, reference compound]
δ × pKH.sbsb.2O ([2]; product for the acid): 62
% of carboxylate end group (End group determination; [7]): 2.5%
End Groups --COOH (End group determination; [7]): 83 moles × 10^-6 g^-1
End Groups --OH (End group determination; [7]): 56 moles × 10^-6 g^-1
End Groups Carboxylate (End group determination; [7]): 4 moles × 10^-6 g^-1
End Groups Total from solution I.V. (End group determination; [7]): 157 moles × 10^-6 g^-1
Tn(composition)-Tn(polyester) [1]: 19 °C
t1/2 (sec) 110° C. [3]: 150 s
t1/2 (sec) 120° C. [3]: 55 s
K [4]: 109
ΔT [5]: 92.5 °C

Compound: O=C([O-])Cc1ccccc1.[Na+] [sodium phenylacetate]
t1/2 (sec) 110° C. [3]: 55 s
t1/2 (sec) 120° C. [3]: 30 s
K [4]: less than 15
